13 molecules from patent publication US5763404A, “Methods for using LHRH antagonists with low histamine release” (priority 1995, dated 1998) can be followed below.

Starred links: 1 amine or outer side, 2 acyl side, 3 side chain; linkers in the order of their positions; H or OH if unused. Non-standard residues stand in square brackets, D forms with d. Residues, ends and D or L forms follow the SMILES beside them. *: point of attachment. X6 = O=C(N[C@H]1CC[C@H](C[C@@H](N[*:1])C(=O)[*:2])CC1)c1ccccn1; X9 = CN=C(NCCC[C@H](N[*:1])C(=O)[*:2])N(C)C; dPhe(4-Cl) = N[C@H](Cc1ccc(Cl)cc1)C(=O)O; d2Nal = N[C@H](Cc1ccc2ccccc2c1)C(=O)O; Lys(iPr) = CC(C)NCCCC[C@H](N)C(=O)O; Orn(iPr) = CC(C)NCCC[C@H](N)C(=O)O; Benzoyl(4-OH) = O=C(c1ccc(O)cc1)*; NH(4-MeO-phenyl) = COc1ccc(N*)cc1; Pyrazinecarbonyl = O=C(c1cnccn1)*; d3Pal = N[C@H](Cc1cccnc1)C(=O)O; Isonicotinoyl = O=C(c1ccncc1)*; Nicotinoyl = O=C(c1cccnc1)*; Picolinoyl = O=C(c1ccccn1)*; Orn = NCCC[C@H](N)C(=O)O; dAbu = CC[C@@H](N)C(=O)O; Abu = CC[C@H](N)C(=O)O

One series relates to anaesthesized rats. Nature of the series: wheal test, intradermal injection. Conditions: 10 ug peptide intradermally. More on the design: Wheal (wheal response): unit not given here. In kind it is in vivo, rat. As for the experimental part:
The antiovulatory activity, AOA, in rats was determined as described by Humphries et al. (12). Antiovulation assays were performed by counting, on estrus, the number of ova shed by 4-day cycling rats after a single sc injection of the LH-RH analogue in corn oil was administered between 12 and 12:30 p.m. on […]. The control rats received 0.3 mL of the vehicle. The wheal test was performed by intradermally injecting 10 ug of peptide in 100 ul of saline into anaesthesized rats, measuring the ideally circular wheal response and calculating the area. The in vitro histamine release test was done as described by Karten et al. (4). A suspension of rat mast cells was added to increasing concentrations of peptide and the mixture was incubated for a few minutes followed by centrifugation to collect the histamine in the supernatant. A PIPES (piperazine-N,N'-bis[2-ethanesulfonic acid]) medium buffered at pH 7.4 containing NaCl 119 mM, KCl 5 mM, PIPES 25 mM, NaOH 40 mM, glucose 5.6 mM, CaCl2 1 mM, and 0.1% bovine serum albumin was used. This was designated as PIPES AC. Peptides were dissolved in double distilled H2 O at a concentration of 2 mg/ml and stored at -20° C. They were thawed just prior to testing, diluted in PIPES AC and prewarmed for five minutes at 37° C. Peptides studied were stable to heating at 56° C. for two hours, and to freezing and thawing.
Turning to `CC[C@@H](NC(=O)[C@@H]1CCCN1C(=O)[C@H](CCCCNC(C)C)NC(=O)[C@H](CC(C)C)NC(=O)[C@@H](CCCCNC(=O)c1ccccn1)NC(=O)[C@H](CCCCNC(=O)c1ccccn1)NC(=O)[C@H](CO)NC(=O)[C@@H](Cc1cccnc1)NC(=O)[C@@H](Cc1ccc(Cl)cc1)NC(=O)[C@@H](Cc1ccc2ccccc2c1)NC(C)=O)C(N)=O` [compound 26019] (Ac-[d2Nal][dPhe(4-Cl)][d3Pal]SK(Picolinoyl)[dK](Picolinoyl)L[Lys(iPr)]P[dAbu]-NH2), the “Wheal Area” value worked out at 109.9 ± 3.0 mm^2 /10 μg.
On the same count and under the same terms, with `CC(=O)N[C@H](Cc1ccc2ccccc2c1)C(=O)N[C@H](Cc1ccc(Cl)cc1)C(=O)N[C@H](Cc1cccnc1)C(=O)N[C@@H](CO)C(=O)N[C@@H](CCCCNC(=O)c1ccccn1)C(=O)N[C@H](CCCCNC(=O)c1ccccn1)C(=O)N[C@@H](CC(C)C)C(=O)N[C@@H](CCCNC(C)C)C(=O)N1CCC[C@H]1C(=O)N[C@H](C)C(N)=O` [compound 25933] (Ac-[d2Nal][dPhe(4-Cl)][d3Pal]SK(Picolinoyl)[dK](Picolinoyl)L[Orn(iPr)]P[dA]-NH2) the figure was 113.0 ± 0 mm^2 /10 μg.
The same measure, in the same setting: with `CC[C@H](NC(=O)[C@@H](CCCCNC(=O)c1ccccn1)NC(=O)[C@H](CCCCNC(=O)c1ccc(O)cc1)NC(=O)[C@H](CO)NC(=O)[C@@H](Cc1cccnc1)NC(=O)[C@@H](Cc1ccc(Cl)cc1)NC(=O)[C@@H](Cc1ccc2ccccc2c1)NC(C)=O)C(=O)N[C@@H](CCCCNC(C)C)C(=O)N1CCC[C@H]1C(=O)N[C@H](C)C(N)=O` [compound 26381] (Ac-[d2Nal][dPhe(4-Cl)][d3Pal]SK(Benzoyl(4-OH))[dK](Picolinoyl)[Abu][Lys(iPr)]P[dA]-NH2) the figure was 95.1 ± 5.0 mm^2 /10 μg; with `CC(=O)N[C@H](Cc1ccc2ccccc2c1)C(=O)N[C@H](Cc1ccc(Cl)cc1)C(=O)N[C@H](Cc1cccnc1)C(=O)N[C@@H](CO)C(=O)N[C@@H](CCCCNC(=O)c1ccccn1)C(=O)N[C@H](C[C@H]1CC[C@H](NC(=O)c2ccccn2)CC1)C(=O)N[C@@H](CC(C)C)C(=O)N[C@@H](CCCCNC(C)C)C(=O)N1CCC[C@H]1C(=O)N[C@H](C)C(N)=O` [IV-3] (Ac-[d2Nal][dPhe(4-Cl)][d3Pal]SK(Picolinoyl)[X6]L[Lys(iPr)]P[dA]-NH2), 101.0 ± 3.0 mm^2 /10 μg.
Still for that read-out and setting: with `CC(=O)N[C@H](Cc1ccc2ccccc2c1)C(=O)N[C@H](Cc1ccc(Cl)cc1)C(=O)N[C@H](Cc1cccnc1)C(=O)N[C@@H](CO)C(=O)N[C@@H](CCCCNC(=O)c1cccnc1)C(=O)N[C@H](CCCCNC(=O)c1cnccn1)C(=O)N[C@@H](CC(C)C)C(=O)N[C@@H](CCCNC(C)C)C(=O)N1CCC[C@H]1C(=O)N[C@H](C)C(N)=O` [compound 25991] (Ac-[d2Nal][dPhe(4-Cl)][d3Pal]SK(Nicotinoyl)[dK](Pyrazinecarbonyl)L[Orn(iPr)]P[dA]-NH2) the figure was 104.3 ± 10.5 mm^2 /10 μg.

The series is the same for the next values; noted with them: Table I; 10 ug peptide intradermally.
Regarding `CC(=O)N[C@H](Cc1ccc2ccccc2c1)C(=O)N[C@H](Cc1ccc(Cl)cc1)C(=O)N[C@H](Cc1cccnc1)C(=O)N[C@@H](CO)C(=O)N[C@@H](Cc1ccc(O)cc1)C(=O)N[C@H](CCCNC(=N)N)C(=O)N[C@@H](CC(C)C)C(=O)N[C@@H](CCCCNC(=O)c1cccnc1)C(=O)N1CCC[C@H]1C(=O)N[C@H](C)C(N)=O` [compound 24749] (Ac-[d2Nal][dPhe(4-Cl)][d3Pal]SY[dR]LK(Nicotinoyl)P[dA]-NH2), the Wheal stood at 136.3 mm^2 /10.
Same read-out and setting: next, `COc1ccc(NC(=O)CC[C@@H](NC(=O)[C@H](CCCCNC(=O)c2cccnc2)NC(=O)[C@H](CO)NC(=O)[C@@H](Cc2cccnc2)NC(=O)[C@@H](Cc2ccc(Cl)cc2)NC(=O)[C@@H](Cc2ccc3ccccc3c2)NC(C)=O)C(=O)N[C@@H](CC(C)C)C(=O)N[C@@H](CCCCNC(C)C)C(=O)N2CCC[C@H]2C(=O)N[C@H](C)C(N)=O)cc1` [compound 25588] (Ac-[d2Nal][dPhe(4-Cl)][d3Pal]SK(Nicotinoyl)[dE](NH(4-MeO-phenyl))L[Lys(iPr)]P[dA]-NH2): 113 ± 7 mm^2 /10; `CC(=O)N[C@H](Cc1ccc2ccccc2c1)C(=O)N[C@H](Cc1ccc(Cl)cc1)C(=O)N[C@H](Cc1cccnc1)C(=O)N[C@@H](CO)C(=O)N[C@@H](Cc1ccc(O)cc1)C(=O)N[C@H](CCCCNC(=O)c1cccnc1)C(=O)N[C@@H](CC(C)C)C(=O)N[C@@H](CCCNC(=N)N)C(=O)N1CCC[C@H]1C(=O)N[C@H](C)C(N)=O` [compound 22396] (Ac-[d2Nal][dPhe(4-Cl)][d3Pal]SY[dK](Nicotinoyl)LRP[dA]-NH2): 85 mm^2 /10; `CN=C(NCCC[C@H](NC(=O)[C@H](CC(C)C)NC(=O)[C@@H](CCCCNC(=O)c1cccnc1)NC(=O)[C@H](CCCCNC(=O)c1cccnc1)NC(=O)[C@H](CO)NC(=O)[C@@H](Cc1cccnc1)NC(=O)[C@@H](Cc1ccc(Cl)cc1)NC(=O)[C@@H](Cc1ccc2ccccc2c1)NC(C)=O)C(=O)N1CCC[C@H]1C(=O)N[C@H](C)C(N)=O)N(C)C` [compound 24987] (Ac-[d2Nal][dPhe(4-Cl)][d3Pal]SK(Nicotinoyl)[dK](Nicotinoyl)L[X9]P[dA]-NH2): 150.9 ± 14.0 mm^2 /10.
On the same count and under the same terms, with `CC(=O)N[C@H](Cc1ccc2ccccc2c1)C(=O)N[C@H](Cc1ccc(Cl)cc1)C(=O)N[C@H](Cc1cccnc1)C(=O)N[C@@H](CO)C(=O)N[C@@H](CCCNC(=N)N)C(=O)N[C@H](CCCCNC(=O)c1cccnc1)C(=O)N[C@@H](CC(C)C)C(=O)N[C@@H](CCCNC(=N)N)C(=O)N1CCC[C@H]1C(=O)N[C@H](C)C(N)=O` [compound 24199] (Ac-[d2Nal][dPhe(4-Cl)][d3Pal]SR[dK](Nicotinoyl)LRP[dA]-NH2) the figure was 146.8 mm^2 /10; with `CC(=O)N[C@H](Cc1ccc2ccccc2c1)C(=O)N[C@H](Cc1ccc(Cl)cc1)C(=O)N[C@H](Cc1cccnc1)C(=O)N[C@@H](CO)C(=O)N[C@@H](Cc1ccc(O)cc1)C(=O)N[C@H](CCCCNC(=O)c1cccnc1)C(=O)N[C@@H](CC(C)C)C(=O)N[C@@H](CCCN)C(=O)N1CCC[C@H]1C(=O)N[C@H](C)C(N)=O` [compound 24748] (Ac-[d2Nal][dPhe(4-Cl)][d3Pal]SY[dK](Nicotinoyl)L[Orn]P[dA]-NH2), 129.4 mm^2 /10; with `CC(=O)N[C@H](Cc1ccc2ccccc2c1)C(=O)N[C@H](Cc1ccc(Cl)cc1)C(=O)N[C@H](Cc1cccnc1)C(=O)N[C@@H](CO)C(=O)N[C@@H](CCCCNC(=O)c1ccncc1)C(=O)N[C@H](CCCCNC(=O)c1ccncc1)C(=O)N[C@@H](CC(C)C)C(=O)N[C@@H](CCCCNC(C)C)C(=O)N1CCC[C@H]1C(=O)N[C@H](C)C(N)=O` [compound 25146] (Ac-[d2Nal][dPhe(4-Cl)][d3Pal]SK(Isonicotinoyl)[dK](Isonicotinoyl)L[Lys(iPr)]P[dA]-NH2), 140.3 mm^2 /10.
`CC(=O)N[C@H](Cc1ccc2ccccc2c1)C(=O)N[C@H](Cc1ccc(Cl)cc1)C(=O)N[C@H](Cc1cccnc1)C(=O)N[C@@H](CO)C(=O)N[C@@H](Cc1c[nH]cn1)C(=O)N[C@H](CCCCNC(=O)c1cccnc1)C(=O)N[C@@H](CC(C)C)C(=O)N[C@@H](CCCCNC(=O)c1cccnc1)C(=O)N1CCC[C@H]1C(=O)N[C@H](C)C(N)=O` [compound 24745] (Ac-[d2Nal][dPhe(4-Cl)][d3Pal]SH[dK](Nicotinoyl)LK(Nicotinoyl)P[dA]-NH2): the Wheal is given as 136.3 ± 6.8 mm^2 /10.

The same series, now with this note: Table XIV and text, unit not given.
For the molecule `CC(=O)N[C@H](Cc1ccc2ccccc2c1)C(=O)N[C@H](Cc1ccc(Cl)cc1)C(=O)N[C@H](Cc1cccnc1)C(=O)N[C@@H](CO)C(=O)N[C@@H](CCCCNC(=O)c1ccccn1)C(=O)N[C@H](CCCCNC(=O)c1ccccn1)C(=O)N[C@@H](CC(C)C)C(=O)N[C@@H](CCCNC(C)C)C(=O)N1CCC[C@H]1C(=O)N[C@H](C)C(N)=O` [compound 25933] (Ac-[d2Nal][dPhe(4-Cl)][d3Pal]SK(Picolinoyl)[dK](Picolinoyl)L[Orn(iPr)]P[dA]-NH2), the “Wheal (wheal response)” value came out at 113.0 ± 0.
